Experimental data as given in patent publication US20240109917A1 (ACTELION PHARMACEUTICALS LTD, priority 2020, published 2024).
Where two headings read alike, the source gives them in different places.

Columns and labels:
[1] = biological target: His6-TEV-PDGFRβ (557-1016) (Homo sapiens (Human), UniProt P09619); assay: PDGFRβ HTRF Assay; type: biochemical; conditions: read-out: PDGFR HTRF IC50
Method in brief: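 Human PDGFRβ (557-1016) pre-incubated with compound for 30 min at RT in pH 7.5 HEPES/MgCl2/EGTA/Brij-35/DTT buffer. Reaction started with ATP and TK-biotin peptide, run 3 h at RT, then quenched with EDTA-containing Eu-cryptate antibody/streptavidin-XL665. HTRF 665/620 nm ratio read after 60 min; percent inhibition relative to DMSO and 10 μM imatinib controls.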

[2] = biological target: PDGFRβ (Rattus norvegicus (Rat), UniProt Q05030); assay: PDGFRβ Cellular Assay (PDGFRb P-Y751 HTRF in A10 cells stimulated with PDGF-BB); type: cell-based
Method in brief: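 Rat A10 cells, plated overnight, were treated with compound for 3 hours, then stimulated with PDGF-BB (working stock 100 ng/mL in 10% FBS medium). After lysis, PDGFRβ P-Y751 was detected by HTRF.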

Chain of PDGFRβ (Q05030 32-1097): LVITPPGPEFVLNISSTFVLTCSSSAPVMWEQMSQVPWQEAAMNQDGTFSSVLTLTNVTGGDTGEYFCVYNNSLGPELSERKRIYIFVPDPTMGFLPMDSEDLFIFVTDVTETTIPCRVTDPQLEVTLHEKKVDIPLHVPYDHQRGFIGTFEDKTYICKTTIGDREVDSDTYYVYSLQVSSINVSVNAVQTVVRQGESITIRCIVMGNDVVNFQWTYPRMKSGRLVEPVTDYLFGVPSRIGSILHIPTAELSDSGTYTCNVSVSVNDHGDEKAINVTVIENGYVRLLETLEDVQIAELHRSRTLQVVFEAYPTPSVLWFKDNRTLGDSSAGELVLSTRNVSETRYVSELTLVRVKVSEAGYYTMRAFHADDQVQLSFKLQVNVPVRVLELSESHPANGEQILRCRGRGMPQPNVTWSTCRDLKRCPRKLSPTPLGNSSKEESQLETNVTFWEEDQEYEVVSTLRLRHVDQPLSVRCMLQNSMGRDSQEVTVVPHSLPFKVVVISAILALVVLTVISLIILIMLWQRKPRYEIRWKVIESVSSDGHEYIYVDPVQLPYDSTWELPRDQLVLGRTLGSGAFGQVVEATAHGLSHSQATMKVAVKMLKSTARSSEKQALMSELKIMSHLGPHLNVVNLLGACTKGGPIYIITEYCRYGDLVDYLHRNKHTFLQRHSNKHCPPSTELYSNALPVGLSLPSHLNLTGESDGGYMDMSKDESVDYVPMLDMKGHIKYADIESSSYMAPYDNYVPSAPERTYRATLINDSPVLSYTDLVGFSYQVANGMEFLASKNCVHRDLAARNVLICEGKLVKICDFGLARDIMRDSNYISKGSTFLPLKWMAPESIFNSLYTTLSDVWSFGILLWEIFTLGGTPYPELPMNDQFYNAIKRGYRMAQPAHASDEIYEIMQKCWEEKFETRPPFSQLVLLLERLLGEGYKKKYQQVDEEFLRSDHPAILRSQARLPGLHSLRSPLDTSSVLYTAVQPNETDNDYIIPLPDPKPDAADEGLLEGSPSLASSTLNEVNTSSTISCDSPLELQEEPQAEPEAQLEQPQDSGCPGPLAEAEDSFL
Chain of His6-TEV-PDGFRβ (557-1016) (P09619 557-1016): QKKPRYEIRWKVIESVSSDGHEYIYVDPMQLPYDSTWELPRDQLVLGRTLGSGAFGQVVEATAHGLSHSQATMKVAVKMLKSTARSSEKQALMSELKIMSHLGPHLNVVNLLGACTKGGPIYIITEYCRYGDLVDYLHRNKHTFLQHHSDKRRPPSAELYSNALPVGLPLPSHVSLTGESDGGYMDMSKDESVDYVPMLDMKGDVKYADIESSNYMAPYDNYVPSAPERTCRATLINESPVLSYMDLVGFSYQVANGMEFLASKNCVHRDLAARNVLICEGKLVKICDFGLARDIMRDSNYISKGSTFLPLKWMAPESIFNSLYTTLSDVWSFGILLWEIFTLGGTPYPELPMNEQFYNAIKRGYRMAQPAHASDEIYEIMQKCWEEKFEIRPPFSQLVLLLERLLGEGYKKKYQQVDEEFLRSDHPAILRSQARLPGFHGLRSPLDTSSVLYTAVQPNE

COCCn1cc(-c2cn3ncc(C(=O)Nc4cc(NC(=O)CN5CCC(C)(C)C5)cnc4C)c3s2)cn1 [Example 336, N-(5-(2-(3,3-dimethylpyrrolidin-1-yl)acetamido)-2-methylpyridin-3-yl)-2-(1-(2-methoxyethyl)-1H-pyrazol-4-yl)pyrazolo[5,1-b]thiazole-7-carboxamide]
IC50 [1]: 0.4 nM | IC50 ([2]; read-out: PDGFR Cellular IC50): 3.1 nM

COc1ccncc1-c1cn2ncc(C(=O)Nc3cc(NC(=O)CN4C[C@H](C)O[C@@H](C)C4)cnc3C)c2s1 (relative stereo) [Example 385, N-(5-(2-(trans-2,6-dimethylmorpholino)acetamido)-2-methylpyridin-3-yl)-2-(4-methoxypyridin-3-yl)pyrazolo[5,1-b]thiazole-7-carboxamide]
IC50 [1]: 0.8 nM | IC50 ([2]; read-out: PDGFR Cellular IC50): 9.5 nM

Cc1ncc(NC(=O)CN2CC3CCC(C2)O3)cc1NC(=O)c1cnn2cc(-c3cc[nH]c3)sc12 [Example 366, N-(5-(2-(8-oxa-3-azabicyclo[3.2.1]octan-3-yl)acetamido)-2-methylpyridin-3-yl)-2-(1H-pyrrol-3-yl)pyrazolo[5,1-b]thiazole-7-carboxamide]
IC50 [1]: 0.3 nM | IC50 ([2]; read-out: PDGFR Cellular IC50): 7.7 nM

Cc1ncc(NC(=O)CN2C[C@H](C)O[C@@H](C)C2)cc1NC(=O)c1cnn2cc(-c3cnc(N)c(F)c3)sc12 (relative stereo) [Example 372, 2-(6-amino-5-fluoropyridin-3-yl)-N-(5-(2-(trans-2,6-dimethylmorpholino)acetamido)-2-methylpyridin-3-yl)pyrazolo[5,1-b]thiazole-7-carboxamide]
IC50 [1]: 0.6 nM | IC50 ([2]; read-out: PDGFR Cellular IC50): 21.2 nM

Cc1ncc(NC(=O)C2CCN(C(C)C)C2)cc1NC(=O)c1cnn2cc(-c3cn(C)nc3C)sc12 (stereo not drawn) [Example 355, 2-(1,3-dimethyl-1H-pyrazol-4-yl)-N-(5-(1-isopropylpyrrolidine-3-carboxamido)-2-methylpyridin-3-yl)pyrazolo[5,1-b]thiazole-7-carboxamide]
IC50 [1]: 0.4 nM | IC50 ([2]; read-out: PDGFR Cellular IC50): 50.3 nM

Cc1ncc(NC(=O)C2CN(C(C)C)C2)cc1NC(=O)c1cnn2cc(-c3cnn(C)c3C)sc12 [Example 357, 2-(1,5-dimethyl-1H-pyrazol-4-yl)-N-(5-(1-isopropylazetidine-3-carboxamido)-2-methylpyridin-3-yl)pyrazolo[5,1-b]thiazole-7-carboxamide]
IC50 [1]: 0.2 nM | IC50 ([2]; read-out: PDGFR Cellular IC50): 56.9 nM

COCCn1cc(-c2cn3ncc(C(=O)Nc4cc(NC(=O)C5CCN(C(C)C)C5)cnc4C)c3s2)cn1 (stereo not drawn) [Example 345, N-(5-(1-isopropylpyrrolidine-3-carboxamido)-2-methylpyridin-3-yl)-2-(1-(2-methoxyethyl)-1H-pyrazol-4-yl)pyrazolo[5,1-b]thiazole-7-carboxamide]
IC50 [1]: 1.3 nM | IC50 ([2]; read-out: PDGFR Cellular IC50): 222 nM

COCC1CN(CC(=O)Nc2cnc(C)c(NC(=O)c3cnn4cc(-c5cnn(C)c5)sc34)c2)CC(C)(C)O1 (stereo not drawn) [Example 383, N-(5-(2-(6-(methoxymethyl)-2,2-dimethylmorpholino)acetamido)-2-methylpyridin-3-yl)-2-(1-methyl-1H-pyrazol-4-yl)pyrazolo[5,1-b]thiazole-7-carboxamide]
IC50 [1]: 1 nM | IC50 ([2]; read-out: PDGFR Cellular IC50): 15 nM

COCCCc1cn2ncc(C(=O)Nc3cc(C(=O)NCCN4CCCC4(C)C)cnc3C)c2s1 [Example 360, N-(5-((2-(2,2-dimethylpyrrolidin-1-yl)ethyl)carbamoyl)-2-methylpyridin-3-yl)-2-(3-methoxypropyl)pyrazolo[5,1-b]thiazole-7-carboxamide]
IC50 [1]: 4.9 nM | IC50 ([2]; PDGFR Cellular IC50): 59.2 nM

Cc1ncc(NC(=O)CN2CCC23CCC3)cc1NC(=O)c1cnn2cc(-c3ccnc(N4CCOCC4)c3)sc12 [Example 353, N-(5-(2-(1-azaspiro[3.3]heptan-1-yl)acetamido)-2-methylpyridin-3-yl)-2-(2-morpholinopyridin-4-yl)pyrazolo[5,1-b]thiazole-7-carboxamide]
IC50 [1]: 0.2 nM | IC50 ([2]; read-out: PDGFR Cellular IC50): 1.6 nM

COCCn1cc(-c2cn3ncc(C(=O)Nc4cc(NC(=O)[C@@H]5CCCN5C(C)C)cnc4C)c3s2)cn1 [Example 343, (S)—N-(5-(1-isopropylpyrrolidine-2-carboxamido)-2-methylpyridin-3-yl)-2-(1-(2-methoxyethyl)-1H-pyrazol-4-yl)pyrazolo[5,1-b]thiazole-7-carboxamide]
IC50 [1]: 3.5 nM | IC50 ([2]; read-out: PDGFR Cellular IC50): 47.9 nM

Cc1ncc(NC(=O)CN2C[C@H](C)O[C@@H](C)C2)cc1NC(=O)c1cnn2cc(-c3c(C)n[nH]c3C)sc12 (relative stereo) [Example 373, 2-(3,5-dimethyl-1H-pyrazol-4-yl)-N-(5-(2-(trans-2,6-dimethylmorpholino)acetamido)-2-methylpyridin-3-yl)pyrazolo[5,1-b]thiazole-7-carboxamide]
IC50 [1]: 1.3 nM | IC50 ([2]; read-out: PDGFR Cellular IC50): 56.7 nM
